These results are taken from patent US11173152B1, “Glutathione-coated nanoparticles for delivery of MKT-077 across the blood-brain barrier” (UNIVERSITY OF SOUTH FLORIDA, priority 2015, dated 2021).

The conditions of series [1]: dog, in vivo; cited from earlier work.
Series [2] concerns human tau in HeLa cells stably expressing human tau. Put plainly: Effect on tau level in a cellular AD model (Western blot). Particulars: 3 μM, 24 hours, GAPDH normalization. Format: cell-based. As for the experimental part:
AD model: HeLa cells stably expressing human tau were maintained in OPTIMEM media as described earlier. Treatment with nanoparticles or control were performed for 24 hours and samples analyzed by western blotting, as described earlier.
In order to determine whether the newly formulated MKT-NPs are active, a cellular AD HeLa cell model that stably expresses human tau was used. Cells were treated with 3 μM of MKT uncoated NPs or MKT Glu-NPS or drug in solution or various controls for 24 hours.

The conditions of series [3]: rat, in vivo; cited from earlier work.
Series [4] can be described thus: In vitro drug release (dialysis membrane, PBS pH 7.4). Format: physicochemical. Particulars: within the initial 4 hours; PBS pH 7.4, 37° C. As for the experimental part: The drug release profile of MKT from MKT NPs and MKT Glu-NPs was investigated using a method previously described by the current inventors in [14]. 0.05 mg equivalent of MKT aqueous solution, MKT NPs, and MKT Glu-NPs were placed in dialysis membrane tubing ([…]) and placed in 20 mL of release medium comprised of PBS (pH 7.4) stirring at 100 rpm and 37° C. 1 mL aliquots were removed at predetermined intervals over 7 days and analyzed by UV spectroscopy at wavelength of 492 nm (λmax) and compared to UV absorbance of standard aqueous dilutions of MKT drug (r^2=0.9943).

The conditions of series [5]: blockage by the BBB; cited from earlier work.
The subject of series [6] is TRANSWELL in vitro BBB model, co-culture of RBE4 (rat brain endothelial) cells with C6 (rat astrocytoma) cells. Description: In vitro BBB permeation model. Particulars: end of the 48-hour study period, 10 μM equivalent, n=4. The series is classed as in vitro ADME. As for the experimental part: A […] in vitro BBB model was established to study the BBB permeation of MKT NPs and MKT Glu-NPs compared to drug solution according to a method previously described by the current inventors in [18]. […] permeable inserts were treated with 0.1% rat tail collagen I on the apical and basolateral sides. After 24 hours, C6 (rat astrocytoma) cells were seeded onto the basolateral side of the permeable insert (5×10^4 cells). After 48 hours, RBE4 (rat brain endothelial) cells were seeded onto the apical side of the permeable (5×10^4 cells). Cells were bathed in 1:1 mixture of Ham's F10:MEM media supplemented with 10% FBS with 1.5 mL in the basolateral chamber and 0.5 mL in the apical chamber, and were allowed to incubate (37° C. and 5% CO2) for 24 hours until confluence was established.
After 24 hours, media was replaced with a 1:1 mixture of Ham's F10:MEM media supplemented with 1% FBS (experimental media), and cells were treated with 10 μM equivalent treatments of MKT aqueous drug solution, MKT NPs, and MKT Glu-NPs. 1 mL media samples were aliquoted from the basolateral chamber at predetermined intervals over a 48-hour period to investigate the trans-BBB permeation of the treatments. Aliquots were read by UV spectroscopy (at wavelength of 492 nm (λmax) and compared to UV absorbance of standard dilutions of MKT drug in experimental media (r^2=0.9990).

The conditions of series [7]: human subjects; cited from earlier work.

Each structure is given as a SMILES string. Like-named read-outs stand apart in the source and are kept apart here.

For `CCn1c(=O)/c(=C2\Sc3ccccc3N2C)s/c1=C\c1cccc[n+]1CC.[Cl-]` [MKT-077], the renal toxicity result in series [1], in series [3] and in series [7] was “irreversible renal toxicity” throughout. Further, the “reduction in tau levels” value in series [2] is “greater and comparable reduction in tau levels”. Besides, the drug released entry in series [4] is on record as “Approximately 100%”. Besides, the brain permeation result in series [5] is listed as “limited-to-no brain permeation”. The “drug permeated through the BBB model” value in series [6] is 20%.
